Data set [1] relates to Na+-dependent Cl-/HCO3- exchanger (NCBE). Description: Inhibition of the Na+-dependent Cl-/HCO3- exchanger (NCBE) in human endothelial cells (BCECF fluorescence, FLIPR, pHi recovery). It is filed as cell-based. As to conditions: inhibitor concentration 10 μM; human endothelial cells (ECV-304); 50 μM HOE 642 present; 35° C., 2 minutes. How it is done: Inhibition of the Na^+-dependent Cl^−/HCO3^− Exchanger (NCBE) in Human Endothelial Cells
Human endothelial cells (ECV-304) were detached from culture bottles with the aid of trypsin/EDTA buffer (0.05/0.02% in phosphate buffer) and, after centrifugation (100 g, 5 min), taken up in a buffered salt solution (mmol/l: 115 NaCl, 20 NH4Cl, 5 KCl, 1 CaCl2, 1 MgSO4, 20 N-(2-hydroxyethyl)piperazine-N-2-ethanesulfonic acid (HEPES), 5 glucose and 1 g/l of bovine serum albumin; pH 7.4). This cell suspension was incubated at 37° C. for 20 min with 5 μM BCECF-acetoxymethyl ester. The cells were then washed and resuspended in a sodium- and bicarbonate-free buffer solution (mmol/l: 5 HEPES, 133.8 choline chloride, 4.7 KCl, 1.25 MgCl2, 0.97 K2HPO4, 0.23 KH2PO4, 5 glucose; pH 7.4).
For subsequent fluorescence measurement in an FLIPR (Fluorescent Imaging Plate Reader) 100 μl of this cell suspension having 20,000 cells in each case were pipetted per well into a 96-well microtiter plate and this microtiter plate was centrifuged (100 g, 5 min).
In the FLIPR, 100 μl of buffer solution in each case were then removed from a further pretreated microtiter plate and pipetted into each of the 96 wells of the measurement plate. A bicarbonate- and sodium-containing buffer solution (mmol/l: 5 HEPES, 93.8 NaCl, 40 NaHCO3, 4.7 KCl, 1.25 CaCl2, 1.25 MgCl2, 0.97 Na2HPO4, 0.23 NaH2PO4, 5 glucose; pH 7.4) which contained 50 μM HOE 642 was used for a 100% control, i.e. a recovery of the intracellular pH (pHi) via the NCBE. For a 0% control, i.e. no pHi recovery at all, a bicarbonate-free, sodium-containing buffer solution (mmol/l: 5 HEPES, 133.8 NaCl, 4.7 KCl, 1.25 CaCl2, 1.25 MgCl2, 0.97 Na2HPO4, 0.23 NaH2PO4, 5 glucose; pH 7.4) was employed, to which 50 μM HOE 642 were likewise added. The compounds according to the invention were added to the sodium- and bicarbonate-containing solution in various concentrations.
After addition of the buffer solutions to the dye-loaded, acidified cells in the measurement plate, the rise in the fluorescence intensity, which corresponded to a rise in the pHi, in each well of the microtiter plate was determined. The kinetics were in this case recorded at 35° C. for a period of 2 minutes.
The increase in the fluorescence intensities for different concentrations of the compounds according to the invention was related to the two controls and from this the inhibitory action of the substances was determined.

Some results are limits rather than exact numbers.

Experimental findings from US6369236B1, “Imidazole derivatives with biphenylsulfonyl substitution method for preparing them and their use as a drug or diagnostic agent” (Aventis Pharma Deutschland GmbH, priority 1998, dated 2002) are described below.

As usually defined, the melting point is the temperature, or range, at which the solid turns liquid. `COCCOc1nc(-c2ccccc2)n(Cc2ccc(-c3ccccc3S(=O)(=O)NC#N)cc2S(C)(=O)=O)c1C=O` [Example 1, 4′-[5-Formyl-4-(2-methoxyethoxy)-2-phenylimidazol-1-ylmethyl]-3′-methanesulfonylbiphenyl-2-sulfonylcyanamide] showed a melting point above 270 °C. Besides, the “Residual activity of the NCBE at an inhibitor concentration of 10 μM (in %)” value in data set [1] is given as 9.8%.
The matching figures for `COCCOc1cc(-c2ccccc2S(=O)(=O)NC#N)ccc1Cn1c(-c2ccccc2)nc(OCCOC)c1C=O` [Example 4, 4′-[5-Formyl-4-(2-methoxyethoxy)-2-phenylimidazol-1-ylmethyl]-3′-(2-methoxyethoxy)biphenyl-2-sulfonylcyanamide]: 162 °C and 13.5%.
`COCCOc1nc(-c2ccc(C(C)C)cc2)n(Cc2ccc(-c3ccccc3S(=O)(=O)NC#N)cc2)c1C=O` [Example 3, 4′-[5-Formyl-2-(4-isopropylphenyl)-4-(2-methoxyethoxy)imidazol-1-ylmethyl]biphenyl-2-sulfonylcyanamide]: in data set [1], the “Residual activity of the NCBE at an inhibitor concentration of 10 μM (in %)” value is recorded as 29.6%.
For `COCCOc1nc(-c2ccccc2)n(Cc2ccc(-c3ccccc3S(=O)(=O)NC#N)cc2Cl)c1C=O` [Example 2, 3′-Chloro-4′-[5-formyl-4-(2-methoxyethoxy)-2-phenylimidazol-1-ylmethyl]-biphenyl-2-sulfonylcyanamide], the melting point was 195 °C (dec.). For the same compound, in data set [1], the “Residual activity of the NCBE at an inhibitor concentration of 10 μM (in %)” value came to 18.9%.
